# Measured values published in patent US20050032822A1, “Dithiocarbamate derivatives and their use as antibacterial agents” (priority 2001, published 2005).
# Key:
# Type in all cases: cell-based
# Details in all cases: Mueller-Hinton broth
# [1] = tested on: Mycobacterium smegmatis SG 987; test: MIC, micro broth dilution, M. smegmatis SG 987
# M. vaccae IMET 1010670 = test: MIC, micro broth dilution, M. vaccae IMET 10670
# [2] = tested on: multiresistent staphylococci (MRSA) strain 994/93; test: MIC, micro broth dilution, MRSA 994/93
# M. fortuitum B = test: MIC, micro broth dilution, M. fortuitum B
# M aureum SB66 = test: MIC, micro broth dilution, M. aureum SB66
# [3] = tested on: multiresistent staphylococci (MRSA) strain 134/93; test: MIC, micro broth dilution, MRSA 134/93
Compound,"minimal inhibitory concentrations MIC, SG 987 [1] [µg/mL]","minimal inhibitory concentrations MIC, 10670 (M. vaccae IMET 1010670) [µg/mL]","minimal inhibitory concentrations MIC, 994/93 [2] [µg/mL]","minimal inhibitory concentrations MIC, M. fort. (M. fortuitum B) [µg/mL]","minimal inhibitory concentrations MIC, SB 66 (M aureum SB66) [µg/mL]","minimal inhibitory concentrations MIC, 134/93 [3] [µg/mL]"
4-isopropylamino-6-diethyldithiocarbamoyl-5-nitropyrimidine [Subst. Nr. 1],12.5,3.12,25,25,25,3.12
"CCN(CC)C(=S)Sc1ncnc(NC2CC2)c1[N+](=O)[O-] [Subst. Nr. 2, 4-cyclopropylamino-6-diethyldithiocarbamoyl-5-nitropyrimidine]",6.25,3.12,3.12,6.25,12.5,1.56
"CCN(CC)C(=S)Sc1c(C#N)cc([N+](=O)[O-])cc1[N+](=O)[O-] [Subst. Nr. 3, 3,5-dinitro-2-diethyldithiocarbamoylbenzonitril]",12.5,3.12,6.25,6.25,12.5,3.12
"CCN(CC)C(=S)Sc1ncnc(NC)c1[N+](=O)[O-] [Subst. Nr. 4, 4-methylamino-6-diethyldithiocarbamoyl-5-nitropyrimidine]",6.25,1.56,1.56,6.25,6.24,0.78
"CCN(CC)C(=S)Sc1ncnc(N(C)O)c1[N+](=O)[O-] [Subst. Nr. 5, 4-methylhydroxyamino-6-diethyldithiocarbamoyl-5-nitropyrimidine]",6.25,3.12,3.12,6.25,12.5,1.56
"CCOc1nc(C)nc(SC(=S)N(CC)CC)c1[N+](=O)[O-] [Subst. Nr. 6, 4-ethoxy-2-methyl-6-diethyldithiocarbamoyl-5-nitropyrimidine]",12.5,3.12,3.12,12.5,12.5,3.12
"CNc1ncnc(SC(=S)N(C)C)c1[N+](=O)[O-] [Subst. Nr. 7, 4-methylamino-6-dimethyldithiocarbamoyl-5-nitropyrimidine]",12.5,3.12,3.12,6.25,6.25,1.56
"CN(C)C(=S)Sc1ncnc(N(C)C)c1[N+](=O)[O-] [Subst. Nr. 8, 4-dimethylamino-6-dimethyldithiocarbamoyl-5-nitropyrimidine]",12.5,3.12,6.52,12.5,6.25,3.12
"CN(C)C(=S)Sc1c(C#N)cc([N+](=O)[O-])cc1[N+](=O)[O-] [Subst. Nr. 9, 3,5-dinitro-2-dimethyldithiocarbamoylbenzonitrile]",3.12,3.12,0.4,6.25,1.56,0.4
"CCOc1nc(C)nc(SC(=S)N2CCCC2)c1[N+](=O)[O-] [Subst. Nr. 10, 4-ethoxy-2-methyl-6-tetramethylenedithiocarbamoyl-5-nitropyrimidine]",12.5,12.5,0.8,50,25,3.12
"CCCOc1ncnc(SC(=S)N(C)C)c1[N+](=O)[O-] [Subst. Nr. 11, 4-propoxy-6-dimethyldithiocarbamoyl-5-nitropyrimidine]",6.25,0.8,0.8,1.56,1.56,0.8
"CNc1ncnc(SC(=S)N2CCCC2)c1[N+](=O)[O-] [Subst. Nr. 12, 4-methylamino-6-tetramethylenedithiocarbamoyl-5-nitropyrimidine]",3.12,0.8,,0.8,1.56,
"CN(C)c1ncnc(SC(=S)N2CCCC2)c1[N+](=O)[O-] [Subst. Nr. 13, 4-dimethylamino-6-tetramethylenedithiocarbamoyl-5-nitropyrimidine]",3.12,1.56,1.56,1.56,3.12,3.12
"COc1ncnc(SC(=S)N(C)C)c1[N+](=O)[O-] [Subst. Nr. 14, 4-methoxy-6-dimethyldithiocarbamoyl-5-nitropyrimidine]",3.12,3.12,3.12,0.8,0.8,6.25
"COc1ncnc(SC(=S)N2CCCC2)c1[N+](=O)[O-] [Subst. Nr. 15, 4-methoxy-6-tetramethylenedithiocarbamoyl-5-nitropyrimidine]",3.12,0.8,3.12,1.56,1.56,3.12
"NC(=O)c1cc([N+](=O)[O-])cc([N+](=O)[O-])c1SC(=S)N1CCCCCC1 [Subst. Nr. 16, 3,5-dinitro-2-hexamethylenedithiocarbamoylbenzamide]",6.25,0.1,12.5,0.8,6.25,6.25
"NC(=O)c1cc([N+](=O)[O-])cc([N+](=O)[O-])c1SC(=S)N1CCCC1 [Subst. Nr. 17, 3,5-dinitro-2-tetramethylenedithiocarbamoylbenzamide]",50,0.4,12.5,6.25,6.25,25
"O=[N+]([O-])c1cnc(SC(=S)N2CCCC2)c([N+](=O)[O-])c1 [Subst. Nr. 18, 3,5-dinitro-2-tetramethylenedithiocarbamoylpyridine]",6.25,3.12,12.5,3.12,3.12,1.56
